Experimental data as given in BindingDB's records for doi:10.1016/j.bioorg.2016.07.007 (Jamia Hamdard (Hamdard University), 2016).

Target: Glycogen synthase kinase-3 beta (Homo sapiens, UniProt P49841)
Test: GSK-3β activity assay
Procedure: In a typical assay, 10 µL of test compound of different concentrations (dissolved in dimethyl sulfoxide [DMSO] and diluted with assay buffer) and 10 µL (20 ng) of enzyme were added to each well followed by 20 µL of assay buffer containing 25 µM substrate and 1 µM ATP. The final DMSO concentration in the reaction mixturewas less than 1%. After incubation at 30 °C for 30 min, the enzymatic reaction was quenched with 40 µL of Kinase-Glo reagent. Luminescence was recorded after 10 min using Infinite F200 PRO multimode reader (Tecan).

Sequence of Glycogen synthase kinase-3 beta (P49841 whole entry): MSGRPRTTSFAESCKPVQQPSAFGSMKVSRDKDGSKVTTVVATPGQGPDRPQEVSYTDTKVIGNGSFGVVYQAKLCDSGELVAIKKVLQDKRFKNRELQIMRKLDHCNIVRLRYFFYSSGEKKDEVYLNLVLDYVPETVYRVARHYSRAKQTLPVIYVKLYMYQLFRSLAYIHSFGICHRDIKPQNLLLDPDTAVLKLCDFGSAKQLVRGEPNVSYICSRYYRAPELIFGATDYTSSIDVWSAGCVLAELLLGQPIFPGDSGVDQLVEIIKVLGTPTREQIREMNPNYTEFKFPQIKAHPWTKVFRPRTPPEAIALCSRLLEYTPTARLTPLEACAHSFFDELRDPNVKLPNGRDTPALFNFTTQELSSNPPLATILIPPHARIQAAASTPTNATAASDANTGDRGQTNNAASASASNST

SMILES	IC50
Cn1c(SCc2cn(-c3ccccc3Cl)nn2)nc(-c2ccccc2)cc1=O [Pyrimidin-4-one-1,2,3-triazole conjugate, 3m]	577 nM
Cn1c(SCc2cn(-c3cccc(Cl)c3)nn2)nc(-c2ccccc2)cc1=O [Pyrimidin-4-one-1,2,3-triazole conjugate, 3k]	502 nM
Cn1c(SCc2cn(-c3cccc([N+](=O)[O-])c3)nn2)nc(-c2ccccc2)cc1=O [Pyrimidin-4-one-1,2,3-triazole conjugate, 3r]	153 nM
Cn1c(SCc2cn(-c3cccnc3)nn2)nc(-c2ccccc2)cc1=O [Pyrimidin-4-one-1,2,3-triazole conjugate, 3l]	1740 nM
Cc1ccc(-n2cc(CSc3nc(-c4ccccc4)cc(=O)n3C)nn2)cc1C [Pyrimidin-4-one-1,2,3-triazole conjugate, 3n]	82 nM
Cn1c(SCc2cn(-c3ccccc3F)nn2)nc(-c2ccccc2)cc1=O [Pyrimidin-4-one-1,2,3-triazole conjugate, 3j]	122 nM
Cn1c(SCc2cn(-c3ccccc3Br)nn2)nc(-c2ccccc2)cc1=O [Pyrimidin-4-one-1,2,3-triazole conjugate, 3c]	437 nM
Cn1c(SCc2cn(-c3ccccc3)nn2)nc(-c2ccccc2)cc1=O [Pyrimidin-4-one-1,2,3-triazole conjugate, 3e]	916 nM
Cc1ccccc1-n1cc(CSc2nc(-c3ccccc3)cc(=O)n2C)nn1 [Pyrimidin-4-one-1,2,3-triazole conjugate, 3d]	302 nM
Cn1c(SCc2cn(-c3ccc([N+](=O)[O-])cc3)nn2)nc(-c2ccccc2)cc1=O [Pyrimidin-4-one-1,2,3-triazole conjugate, 3q]	587 nM
COc1ccccc1-n1cc(CSc2nc(-c3ccccc3)cc(=O)n2C)nn1 [Pyrimidin-4-one-1,2,3-triazole conjugate, 3i]	1310 nM

Second part, the compound after the results:

IC50	SMILES
94 nM	CCc1ccc(-n2cc(CSc3nc(-c4ccccc4)cc(=O)n3C)nn2)cc1 [Pyrimidin-4-one-1,2,3-triazole conjugate, 3g]
744 nM	Cn1c(SCc2cn(-c3ccc(Br)cc3)nn2)nc(-c2ccccc2)cc1=O [Pyrimidin-4-one-1,2,3-triazole conjugate, 3a]
1140 nM	COc1ccc(-n2cc(CSc3nc(-c4ccccc4)cc(=O)n3C)nn2)cc1 [Pyrimidin-4-one-1,2,3-triazole conjugate, 3o]
1560 nM	Cn1c(SCc2cn(-c3ccc(Cl)cc3)nn2)nc(-c2ccccc2)cc1=O [Pyrimidin-4-one-1,2,3-triazole conjugate, 3p]
200 nM	Cn1c(SCc2cn(-c3ccc(F)cc3)nn2)nc(-c2ccccc2)cc1=O [Pyrimidin-4-one-1,2,3-triazole conjugate, 3b]
1440 nM	CCOc1ccc(-n2cc(CSc3nc(-c4ccccc4)cc(=O)n3C)nn2)cc1 [Pyrimidin-4-one-1,2,3-triazole conjugate, 3h]
1340 nM	Cn1c(SCc2cn(-c3ccc(C(C)(C)C)cc3)nn2)nc(-c2ccccc2)cc1=O [Pyrimidin-4-one-1,2,3-triazole conjugate, 3f]
